Where two headings read alike, the source gives them in different places.
Tests used:
[1] = Amcenestrant PK parameters at steady state in patients; type: in vivo, human; settings: for AUC(0-t) / Cmax / Tmax / concentration at 0 h: human, plasma, oral; for Tmax: read-out: Tmax (median); for concentration at 0 h: read-out: Ctrough (arithmetic mean)
[2] = cited from earlier work
[3] = cited from earlier work; remark: listed apart in the source
[4] = pooled analysis, 1666 patients treated with palbociclib; cited from earlier work
[5] = Published palbociclib exposure data (A5481001, A5481003, A5481008, Ibrance label); type: in vivo; settings: human, plasma; A5481001, A5481003, A5481008, N=57; read-out: AUC0-24 h, reference: geometric mean of individual studies weighed by number of subjects (converted)
[6] = amcenestrant 200 mg with palbociclib, steady state Day 21, N=8
[7] = amcenestrant 400 mg monotherapy, steady state, N=13
[8] = amcenestrant 400 mg with palbociclib, steady state Day 21, N=5

## O=C(O)c1ccc2c(c1)CCCC(c1ccc(Cl)cc1Cl)=C2c1ccc(O[C@H]2CCN(CCCF)C2)cc1 [Amcenestrant, 6-(2,4-dichlorophenyl)-5-[4-[(3S)-1-(3-fluoropropyl)pyrrolidin-3-yl]oxyphenyl]-8,9-dihydro-7H-benzo[7]annulene-2-carboxylic acid]
[1]; [6]
  CLss/F (arithmetic mean): 10.7 L/h
  Ctrough [geometric mean]: [215] ng/mL
[1]; amcenestrant 200 mg with palbociclib, steady state Day 21, N=8, listed as amcenestrant
  CLss/F (arithmetic mean): 10.7 ± 3.38 L/h
[1]; [7]
  CLss/F (arithmetic mean): 10.6 L/h
  Ctrough [geometric mean]: [466] ng/mL
[1]; amcenestrant 400 mg monotherapy, steady state, N=13, listed as amcenestrant
  CLss/F (arithmetic mean): 10.6 ± 4.35 L/h
[1]; amcenestrant 400 mg with palbociclib, Day 21
  systemic clearance higher than after amcenestrant 400 mg QD single agent: 28%
[1]; [8]
  CLss/F (arithmetic mean): 13.5 L/h
  Ctrough [geometric mean]: [248] ng/mL
[1]; amcenestrant 400 mg with palbociclib, steady state Day 21, N=5, listed as amcenestrant
  CLss/F (arithmetic mean): 13.5 ± 5.36 L/h
[1]; female, 200 mg, amcenestrant 200 mg with palbociclib, steady state Day 21, N=8, read-out: AUC0-24h (arithmetic mean) (converted)
  AUC(0-t): 20600 ng·h/mL
[1]; female, 200 mg, amcenestrant 200 mg with palbociclib, steady state Day 21, N=8, read-out: Cmax (arithmetic mean)
  Cmax: 2060 ng/mL
[1]; female, 200 mg
  Tmax: 4.88 h
[1]; female, 400 mg, amcenestrant 400 mg with palbociclib, steady state Day 21, N=5, read-out: AUC0-24h (arithmetic mean) (converted)
  AUC(0-t): 33100 ng·h/mL
[1]; female, 400 mg, amcenestrant 400 mg with palbociclib, steady state Day 21, N=5, read-out: AUC0-24h [geometric mean]
  AUC(0-t): 31400 ng·h/mL
[1]; female, 400 mg, amcenestrant 400 mg with palbociclib, steady state Day 21, N=5, read-out: Cmax (arithmetic mean)
  Cmax: 4350 ng/mL
[1]; female, 400 mg, amcenestrant 400 mg with palbociclib, steady state Day 21, N=5, read-out: Cmax [geometric mean]
  Cmax: 3450 ng/mL
[1]; female, 400 mg
  Tmax: 4 h
[1]; female, amcenestrant 200 mg with palbociclib, steady state Day 21, N=8
  concentration at 0 h: 226 ng/mL
[1]; female, amcenestrant 400 mg with palbociclib, steady state Day 21, N=5
  concentration at 0 h: 280 ng/mL
[1]; 200 mg, amcenestrant 200 mg with palbociclib, steady state Day 21, N=8, read-out: AUC0-24h [geometric mean]
  AUC(0-t): 19500 ng·h/mL
[1]; 200 mg, amcenestrant 200 mg with palbociclib, steady state Day 21, N=8, read-out: Cmax [geometric mean]
  Cmax: 1940 ng/mL
[1]; 400 mg, amcenestrant 400 mg monotherapy, steady state, N=13, read-out: AUC0-24h (arithmetic mean) (converted)
  AUC(0-t): 43200 ng·h/mL
[1]; 400 mg, amcenestrant 400 mg monotherapy, steady state, N=13, read-out: AUC0-24h [geometric mean]
  AUC(0-t): 40400 ng·h/mL
[1]; 400 mg, amcenestrant 400 mg monotherapy, steady state, N=13, read-out: Cmax (arithmetic mean)
  Cmax: 4380 ng/mL
[1]; 400 mg, amcenestrant 400 mg monotherapy, steady state, N=13, read-out: Cmax [geometric mean]
  Cmax: 4220 ng/mL
[1]; 400 mg, amcenestrant 400 mg monotherapy, steady state, N=13
  concentration at 0 h: 630 ng/mL
[1]; 400 mg
  Tmax: 3 h

## CC(=O)c1c(C)c2cnc(Nc3ccc(N4CCNCC4)cn3)nc2n(C2CCCC2)c1=O [Palbociclib, 6-acetyl-8-cyclopentyl-5-methyl-2-{[5-(piperazin-1-yl)pyridin-2-yl]amino}pyrido[2,3-d]pyrimidin-7(8H)-one]
[2]; Ibrance U.S. label
  decrease of exposure when combined with a moderate CYP3A inducer (modafinil): 32%
[2]; study A5481001, palbociclib monotherapy, steady state, N=4
  Cmax, arithmetic mean (CV %): 97.4 (41%) ng/mL
[2]; study A5481003, palbociclib monotherapy, steady state, N=12
  Cmax, geometric mean (CV %): 116 (28%) ng/mL
[2]; study A5481008, palbociclib with letrozole, steady state, N=41
  Cmax, geometric mean (CV %): 110 (35%) ng/mL
[3]; Above pH 4
  solubility: reduces significantly
[3]; At or below pH 4
  solubility: high-solubility compound
[4]
  neutrophil count decrease, any grade: 95.2%
[5]
  AUC(0-t): 1970 ng·h/mL

— patent publication US20240173293A1 (Sanofi, priority 2021, published 2024)
